Test results taken from ChEMBL document CHEMBL1158542, “Synthesis and biological evaluation of modified pentapeptides as potent proteinase K inhibitors” (Bioorg Med Chem Lett, 2010).
Calls of active or inactive are those of the source. The calls are words filed in the database; no cut-off is given here.

Key:
[1] = Inhibition of proteinase K at 0.5 mM pretreated for 1 hr by RT-PCR analysis
[2] = Inhibition of proteinase K at 0.25 to 1 mM pretreated for 1 hr by RT-PCR analysis
[3] = Inhibition of proteinase K at 0.75 mM pretreated for 1 hr by RT-PCR analysis
[4] = Inhibition of proteinase K at 0.25 mM by RT-PCR analysis in presence of BSA
[5] = test system: HeLa; test: Inhibition of proteinase K in human HeLa cells assessed as beta-actin RNA level at 0.5 mM by RT-PCR analysis; assay type: cell-based
[6] = Inhibition of proteinase K at 0.05 mM pretreated for 1 hr by RT-PCR analysis
[7] = Inhibition of proteinase K at 0.10 mM by RT-PCR analysis in presence of BSA
[8] = test system: HeLa; test: Inhibition of proteinase K in human HeLa cells assessed as beta-actin RNA level at 0.10 mM by RT-PCR analysis; assay type: cell-based

Row | inhibition [1] | inhibition [2] | inhibition [3] | inhibition [4] | inhibition [6] | inhibition [7] | Structure (SMILES) | inhibition [5] | inhibition [8]
1 | inactive | Active | Active | Active |  |  | COC(=O)CCC(=O)N[C@@H](C)C(=O)N[C@H](C)C(=O)N[C@@H](C)C(=O)N1CCC[C@H]1C(=O)N[C@H](C(=O)CCl)C(C)C | Active | 
2 |  |  |  |  | Active | Active | COC(=O)CCC(=O)N[C@@H](C)C(=O)N[C@H](C)C(=O)N[C@@H](C)C(=O)N1CCC[C@H]1C(=O)N[C@@H](CC(C)C)C(=O)CCl |  | Active
